The text below walks through data of the supplement of paper PMC10307832.

What all share (assay): relative viability (nuclei count vs DMSO), 5 days (fraction); higher = more cells survive
Compound in the test “Ispinesib + Foretinib”: Cc1ccc(C(=O)N(CCCN)[C@@H](c2nc3cc(Cl)ccc3c(=O)n2Cc2ccccc2)C(C)C)cc1 [Ispinesib] + COc1cc2c(Oc3ccc(NC(=O)C4(C(=O)Nc5ccc(F)cc5)CC4)cc3F)ccnc2cc1OCCCN1CCOCC1 [Foretinib] (partner 0.25 µM)
Put shortly:
(§1)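 After 5 days of treatment, lung cancer cells in 1536-well plates were fixed and stained in a single step (final 0.05% Triton X-100, 1% formaldehyde, 1 ug/ml Hoechst) and their nuclei counted on 4× images. Treatment had been applied by pin tool the day after seeding as one drug alone or as a fixed anchor-drug dose with five library-drug doses (not always all listed) in √10 steps. Relative viability is the nuclei count of treated wells divided by that of vehicle wells, and values are medians of duplicate plates.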

Compound in the test “Ispinesib + AZD7762”: Cc1ccc(C(=O)N(CCCN)[C@@H](c2nc3cc(Cl)ccc3c(=O)n2Cc2ccccc2)C(C)C)cc1 [Ispinesib] + NC(=O)Nc1cc(-c2cccc(F)c2)sc1C(=O)N[C@H]1CCCNC1 [AZD7762] (partner 0.2 µM)
Summed up:
as §1

Compound in the test “Ispinesib + OSI-027”: Cc1ccc(C(=O)N(CCCN)[C@@H](c2nc3cc(Cl)ccc3c(=O)n2Cc2ccccc2)C(C)C)cc1 [Ispinesib] + COc1cccc2cc(-c3nc([C@H]4CC[C@H](C(=O)O)CC4)n4ncnc(N)c34)[nH]c12 [OSI-027] (partner 0.5 µM)
Summed up:
as §1

Compound in the test “Linsitinib + Tozasertib”: C[C@]1(O)C[C@@H](c2nc(-c3ccc4ccc(-c5ccccc5)nc4c3)c3c(N)nccn32)C1 [Linsitinib] + Cc1cc(Nc2cc(N3CCN(C)CC3)nc(Sc3ccc(NC(=O)C4CC4)cc3)n2)n[nH]1 [Tozasertib] (partner 0.1 µM)
Summed up:
as §1

As to NCI-H1703, the relative viability in the test with Ispinesib + Foretinib (first compound 0.001 µM) came to 0.331; with Ispinesib + Foretinib (first compound 0.003162 µM), 0.372; in the test with Ispinesib + Foretinib (first compound 0.01 µM), 0.346; with Ispinesib + Foretinib (first compound 0.03162 µM) it was 0.16; with Ispinesib + Foretinib (first compound 0.1 µM) it was 0.157; with Ispinesib + AZD7762 (first compound 0.001 µM) it was 0.16. Moreover, the relative viability with Ispinesib + AZD7762 (first compound 0.003162 µM) was found to be 0.121; in the test with Ispinesib + AZD7762 (first compound 0.01 µM), 0.134; in the test with Ispinesib + AZD7762 (first compound 0.03162 µM) it was 0.0817; with Ispinesib + AZD7762 (first compound 0.1 µM), 0.0822.
Take NCI-H2023: the relative viability was determined as 0.966 with Ispinesib + Foretinib (first compound 0.001 µM); 0.755 with Ispinesib + Foretinib (first compound 0.003162 µM); 0.807 in the test with Ispinesib + Foretinib (first compound 0.01 µM); 0.457 with Ispinesib + Foretinib (first compound 0.03162 µM); 0.168 with Ispinesib + Foretinib (first compound 0.1 µM); 0.467 with Ispinesib + OSI-027 (first compound 0.001 µM). Also, the relative viability with Ispinesib + OSI-027 (first compound 0.003162 µM) stood at 0.421; with Ispinesib + OSI-027 (first compound 0.01 µM), 0.404; with Ispinesib + OSI-027 (first compound 0.03162 µM) it was 0.163; with Ispinesib + OSI-027 (first compound 0.1 µM) it was 0.143; in the test with Linsitinib + Tozasertib (first compound 0.01 µM) it was 0.256; in the test with Linsitinib + Tozasertib (first compound 0.03162 µM), 0.228. The relative viability in the test with Linsitinib + Tozasertib (first compound 0.1 µM) was 0.36; in the test with Linsitinib + Tozasertib (first compound 0.3162 µM), 0.196; with Linsitinib + Tozasertib (first compound 1 µM), 0.177.
For the cell line A549, the relative viability with Ispinesib + Foretinib (first compound 0.001 µM) is 1.13; with Ispinesib + Foretinib (first compound 0.003162 µM), 1.19; with Ispinesib + Foretinib (first compound 0.01 µM), 1.2; in the test with Ispinesib + Foretinib (first compound 0.03162 µM), 0.757; in the test with Ispinesib + Foretinib (first compound 0.1 µM) it was 0.0545.
As for HCC-44, the relative viability in the test with Ispinesib + OSI-027 (first compound 0.001 µM) amounted to 0.458; with Ispinesib + OSI-027 (first compound 0.003162 µM), 0.812; in the test with Ispinesib + OSI-027 (first compound 0.01 µM), 0.505; with Ispinesib + OSI-027 (first compound 0.03162 µM), 0.484; with Ispinesib + OSI-027 (first compound 0.1 µM) it was 0.151; with Linsitinib + Tozasertib (first compound 0.01 µM) it was 1.1. Also, the relative viability was 0.889 in the test with Linsitinib + Tozasertib (first compound 0.03162 µM); 0.849 with Linsitinib + Tozasertib (first compound 0.1 µM); 0.557 with Linsitinib + Tozasertib (first compound 0.3162 µM); 0.573 with Linsitinib + Tozasertib (first compound 1 µM); 0.983 with Ispinesib + AZD7762 (first compound 0.001 µM); 1.1 with Ispinesib + AZD7762 (first compound 0.003162 µM). Besides, the relative viability with Ispinesib + AZD7762 (first compound 0.01 µM) amounted to 1.02; with Ispinesib + AZD7762 (first compound 0.03162 µM) it was 1.03; in the test with Ispinesib + AZD7762 (first compound 0.1 µM), 0.756.
As for NCI-H1623, the relative viability with Ispinesib + Foretinib (first compound 0.001 µM) is 0.929; with Ispinesib + Foretinib (first compound 0.003162 µM), 1.03; in the test with Ispinesib + Foretinib (first compound 0.01 µM) it was 0.887; in the test with Ispinesib + Foretinib (first compound 0.03162 µM), 0.823; with Ispinesib + Foretinib (first compound 0.1 µM) it was 0.62; with Ispinesib + OSI-027 (first compound 0.001 µM), 0.433. Further, the relative viability in the test with Ispinesib + OSI-027 (first compound 0.003162 µM) was found to be 0.439; with Ispinesib + OSI-027 (first compound 0.01 µM) it was 0.451; in the test with Ispinesib + OSI-027 (first compound 0.03162 µM), 0.406; in the test with Ispinesib + OSI-027 (first compound 0.1 µM), 0.4; with Linsitinib + Tozasertib (first compound 0.01 µM) it was 0.363; with Linsitinib + Tozasertib (first compound 0.03162 µM) it was 0.445. Moreover, the relative viability with Linsitinib + Tozasertib (first compound 0.1 µM) is 0.412; in the test with Linsitinib + Tozasertib (first compound 1 µM), 0.364.
As to SK-LU-1, the relative viability in the test with Ispinesib + Foretinib (first compound 0.001 µM) worked out at 1.01; with Ispinesib + Foretinib (first compound 0.003162 µM), 0.806; with Ispinesib + Foretinib (first compound 0.01 µM) it was 0.942; with Ispinesib + Foretinib (first compound 0.03162 µM) it was 0.821; with Ispinesib + Foretinib (first compound 0.1 µM) it was 0.286; with Ispinesib + OSI-027 (first compound 0.001 µM) it was 0.395. Moreover, the relative viability in the test with Ispinesib + OSI-027 (first compound 0.003162 µM) turned out to be 0.386; with Ispinesib + OSI-027 (first compound 0.01 µM), 0.445; with Ispinesib + OSI-027 (first compound 0.03162 µM), 0.216; in the test with Ispinesib + OSI-027 (first compound 0.1 µM) it was 0.199; in the test with Linsitinib + Tozasertib (first compound 0.01 µM) it was 0.357; with Linsitinib + Tozasertib (first compound 0.1 µM), 0.383. The relative viability was 0.203 with Linsitinib + Tozasertib (first compound 0.3162 µM) and 0.243 with Linsitinib + Tozasertib (first compound 1 µM).
Turning to NCI-H1563, the relative viability amounted to 0.895 in the test with Ispinesib + Foretinib (first compound 0.001 µM); 0.879 with Ispinesib + Foretinib (first compound 0.003162 µM); 0.984 with Ispinesib + Foretinib (first compound 0.01 µM); 0.845 with Ispinesib + Foretinib (first compound 0.03162 µM); 0.798 in the test with Ispinesib + Foretinib (first compound 0.1 µM); 0.841 in the test with Ispinesib + OSI-027 (first compound 0.001 µM). Also, the relative viability with Ispinesib + OSI-027 (first compound 0.003162 µM) is 0.768; in the test with Ispinesib + OSI-027 (first compound 0.01 µM) it was 0.834; in the test with Ispinesib + OSI-027 (first compound 0.03162 µM) it was 0.843; with Ispinesib + OSI-027 (first compound 0.1 µM), 0.536.
Consider COR-L23, for which the relative viability amounted to 0.959 with Ispinesib + Foretinib (first compound 0.001 µM); 1.03 in the test with Ispinesib + Foretinib (first compound 0.003162 µM); 1.16 with Ispinesib + Foretinib (first compound 0.01 µM); 0.412 with Ispinesib + Foretinib (first compound 0.03162 µM); 0.146 with Ispinesib + Foretinib (first compound 0.1 µM); 0.808 with Ispinesib + OSI-027 (first compound 0.001 µM). Further, the relative viability is 0.918 with Ispinesib + OSI-027 (first compound 0.003162 µM); 0.931 with Ispinesib + OSI-027 (first compound 0.01 µM); 0.357 with Ispinesib + OSI-027 (first compound 0.03162 µM); 0.214 with Ispinesib + OSI-027 (first compound 0.1 µM); 0.196 in the test with Linsitinib + Tozasertib (first compound 0.01 µM); 0.207 with Linsitinib + Tozasertib (first compound 0.03162 µM). The relative viability was determined as 0.396 with Linsitinib + Tozasertib (first compound 0.1 µM), 0.174 with Linsitinib + Tozasertib (first compound 0.3162 µM) and 0.152 with Linsitinib + Tozasertib (first compound 1 µM).
For NCI-H1792, the relative viability in the test with Ispinesib + OSI-027 (first compound 0.001 µM) was 0.889; with Ispinesib + OSI-027 (first compound 0.003162 µM), 1.09; with Ispinesib + OSI-027 (first compound 0.01 µM), 0.743; in the test with Ispinesib + OSI-027 (first compound 0.03162 µM), 0.862; with Ispinesib + OSI-027 (first compound 0.1 µM), 0.356; with Ispinesib + AZD7762 (first compound 0.001 µM), 0.73. In addition, the relative viability came to 0.742 with Ispinesib + AZD7762 (first compound 0.003162 µM), 0.828 with Ispinesib + AZD7762 (first compound 0.01 µM), 0.119 in the test with Ispinesib + AZD7762 (first compound 0.03162 µM) and 0.157 in the test with Ispinesib + AZD7762 (first compound 0.1 µM).
As to NCI-H2009, the relative viability turned out to be 1.28 with Ispinesib + Foretinib (first compound 0.001 µM); 1.33 in the test with Ispinesib + Foretinib (first compound 0.003162 µM); 1.32 in the test with Ispinesib + Foretinib (first compound 0.01 µM); 1.09 in the test with Ispinesib + Foretinib (first compound 0.03162 µM); 0.431 in the test with Ispinesib + Foretinib (first compound 0.1 µM); 0.702 in the test with Ispinesib + OSI-027 (first compound 0.001 µM). Further, the relative viability with Ispinesib + OSI-027 (first compound 0.003162 µM) turned out to be 0.695; in the test with Ispinesib + OSI-027 (first compound 0.01 µM), 0.618; with Ispinesib + OSI-027 (first compound 0.03162 µM) it was 0.212; with Ispinesib + OSI-027 (first compound 0.1 µM), 0.211; with Linsitinib + Tozasertib (first compound 0.01 µM) it was 0.72; with Linsitinib + Tozasertib (first compound 0.03162 µM), 0.63. Besides, the relative viability with Linsitinib + Tozasertib (first compound 0.1 µM) is 0.743; with Linsitinib + Tozasertib (first compound 1 µM) it was 0.629.
